Each structure is given as a SMILES string.

In patent publication US20260042755A1, “GPR6 INVERSE AGONISTS” (MapLight Therapeutics, Inc., priority 2022, published 2026) one finds IC50 data, which are given here for 29 compounds.

One assay addresses T1, GPR6 (Homo sapiens, UniProt P46095).
T1 construct: expressed in transfected cells; host or cells: CHO cells
Kind of assay: GPR6 antagonist functional cAMP assay (LANCE Ultra cAMP TR-FRET, CHO cells stably expressing GPR6). Type of assay: cell-based. Summed up:
(§1)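 Compounds, at 0.1% final DMSO, acted on the cells for 45 minutes at 37 °C in the presence of the phosphodiesterase inhibitor Ro 20-1724 (150 μM). After lysis and detection, plates were shaken 1 h at room temperature and emission at 665 nm was recorded. Normalized data gave IC50 values.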
On the technique in general: cAMP levels reflect the balance of adenylyl cyclase and phosphodiesterase activity.

The target of a further assay is T2, GPR3 (Homo sapiens, UniProt P46089).
T2 construct: expressed in transfected cells; host or cells: CHO cells
T2 sequence (P46089 whole entry, species assumed): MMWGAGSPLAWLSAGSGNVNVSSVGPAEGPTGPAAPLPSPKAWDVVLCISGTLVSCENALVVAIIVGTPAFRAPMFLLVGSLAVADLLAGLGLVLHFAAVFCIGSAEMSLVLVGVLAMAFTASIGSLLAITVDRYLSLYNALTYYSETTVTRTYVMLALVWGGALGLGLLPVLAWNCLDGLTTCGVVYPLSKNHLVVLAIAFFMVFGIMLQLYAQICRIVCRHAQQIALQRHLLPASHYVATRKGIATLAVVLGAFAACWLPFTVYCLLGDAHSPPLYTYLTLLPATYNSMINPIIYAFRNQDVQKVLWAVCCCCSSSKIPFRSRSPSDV
Description: GPR3 antagonist functional cAMP assay (LANCE Ultra cAMP TR-FRET, CHO cells stably expressing GPR3). The class given is cell-based. A digest of the protocol:
as §1

The mark [1] stands for this setting: CHO cells stably expressing GPR6, cAMP assay.
Where [2] appears, read: CHO cells stably expressing GPR3, cAMP assay.
Setting [3] is: CHO cells stably expressing GPR6, cAMP assay (Example 24).
The mark [4] stands for this setting: CHO cells stably expressing GPR3, cAMP assay (Example 24).
Setting [5] is: procedure as described in Example 24.

T1 sequence (P46095 whole entry): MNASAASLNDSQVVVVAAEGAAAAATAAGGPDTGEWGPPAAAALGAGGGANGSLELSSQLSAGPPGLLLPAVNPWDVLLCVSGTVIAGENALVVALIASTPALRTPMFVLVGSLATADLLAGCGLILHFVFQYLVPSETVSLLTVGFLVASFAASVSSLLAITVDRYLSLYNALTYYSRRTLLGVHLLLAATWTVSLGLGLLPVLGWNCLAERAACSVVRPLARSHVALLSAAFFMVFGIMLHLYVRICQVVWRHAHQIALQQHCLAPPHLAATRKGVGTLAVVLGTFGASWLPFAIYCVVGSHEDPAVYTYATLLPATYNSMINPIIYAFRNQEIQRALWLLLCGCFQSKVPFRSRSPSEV

In general, IC50 refers to the point on the concentration scale where inhibition reaches its midpoint. Low values mean greater potency, high ones weaker potency. Turning to `CC(=O)N1CCc2nc(N3CCC(Oc4ccccc4C#N)CC3)c(-c3cnn(C)c3)nc2C1` [Compound 499, o-{1-[6-acetyl-3-(1-methyl-4-pyrazolyl)-5,6,7,8-tetrahydro-1,4,6-triaza-2-naphthyl]-4-piperidyloxy} benzonitrile], the IC50 against GPR6 (setting [1]) is 100 to 1000 nM; against GPR3 (setting [2]), ≥ 30000 nM.
With `CC(C)(O)C(O)c1cc2nc(-c3cnn(C4CC4)c3)c(N3CCN(Cc4ccc(F)cc4F)CC3)nc2cn1` (single isomer, unassigned) [Compound 600], the values for the half-maximal inhibitory concentration (IC50) against GPR6 (setting [1]) and on GPR3 (setting [2]) were < 100 nM and 100 to 1000 nM, respectively.
As for `CCn1cc(-c2nc3cnc(NC(C)=O)cc3nc2N2CCC(Oc3ccc(F)cc3F)CC2)cn1` [Compound 367, N-{2-[4-(2,4-difluorophenoxy)piperidin-1-yl]-3-(1-ethyl-1H-pyrazol-4-yl)pyrido[3,4-b]pyrazin-7-yl}acetamide], the IC50 at GPR6 (procedure of Example 24) and against GPR3 (procedure of Example 24) was 1000 to 30000 nM each time.
Turning to `COC[C@H](O)c1cc2nc(-c3cnn(C)c3)c(N3CCC(Oc4ccc(F)cc4F)CC3)nc2cn1` (single isomer, unassigned) [Compound 681], the IC50 is < 100 nM against GPR6 (procedure of Example 24) and 100 to 1000 nM against GPR3 (procedure of Example 24).
As for `Cn1cc(-c2nc3c(nc2N2CCC(Oc4ccc(F)cc4F)CC2)CCN(S(C)(=O)=O)C3)cn1` [Compound 211, 4-(2,4-difluorophenoxy)-1-[6-methanesulfonyl-3-(1-methyl-1H-pyrazol-4-yl)-5H,6H,7H,8H-pyrido[3,4-b]pyrazin-2-yl]piperidine], the figures for the IC50 at GPR6 (setting [3]) and at GPR3 (setting [4]) were < 100 nM and 1000 to 30000 nM, respectively.
In the case of `CC(C)(O)[C@H](O)c1cc2nc(N3CCC(Oc4ccc(F)cc4F)CC3)c(-c3cnn(CF)c3)nc2cn1` (single isomer, unassigned) [Compound 596], the IC50 against GPR6 (setting [1]) is 100 to 1000 nM; at GPR3 (setting [2]), 1000 to 30000 nM.
In the case of `Cn1cc(-c2nc3cnc(C4CNC(=O)CO4)cc3nc2N2CCC(Oc3ccc(F)cc3F)CC2)cn1` (stereo not shown) [Compound 464, 6-(2-(4-(2,4-difluorophenoxy)piperidin-1-yl)-3-(1-methyl-1H-pyrazol-4-yl)pyrido[3,4-b]pyrazin-7-yl)morpholin-3-one], the IC50 lay in the range of 100 to 1000 nM at GPR6 (setting [3]) and 1000 to 30000 nM against GPR3 (setting [4]).
As to `CCn1cc(-c2nc3cnc(C(O)C(C)(C)O)cc3nc2N2CCC(Oc3cc(Cl)ccc3Cl)CC2)cn1` (stereo not shown) [Compound 441, 1-{2-[4-(2,5-dichlorophenoxy)piperidin-1-yl]-3-(1-ethyl-1H-pyrazol-4-yl)pyrido[3,4-b]pyrazin-7-yl}-2-methylpropane-1,2-diol], the figures for the IC50 against GPR6 (setting [3]) and against GPR3 (setting [4]) were 100 to 1000 nM and 1000 to 30000 nM, respectively.
On to `Fc1ccc(CN2CCN(c3nc4ccncc4nc3-c3cn[nH]c3)CC2)c(F)c1` [Compound 52, 1-[(2,4-difluorophenyl)methyl]-4-[3-(1H-pyrazol-4-yl)pyrido[3,4-b]pyrazin-2-yl]piperazine], for which the IC50 on GPR6 (setting [5]) is 100 to 1000 nM; on GPR3 (setting [5]), 1000 to 30000 nM.
Turning to `CNC(=O)CN1CCc2nc(N3CCC(Oc4ccc(F)cc4F)CC3)c(-c3cn[nH]c3)nc2C1` [Compound 145, 2-{2-[4-(2,4-difluorophenoxy)piperidin-1-yl]-3-(1H-pyrazol-4-yl)-5H,6H,7H,8H-pyrido[3,4-b]pyrazin-6-yl}-N-methylacetamide], the IC50 against GPR6 (setting [3]) and on GPR3 (setting [4]) was 1000 to 30000 nM throughout.
Regarding `CC(=O)N1CCc2nc(N3CCC(Oc4ccc(F)cc4F)CC3)c(C3CCCOC3)nc2C1` (stereo not shown) [Compound 237, 1-{2-[4-(2,4-difluorophenoxy)piperidin-1-yl]-3-(oxan-3-yl)-5H,6H,7H,8H-pyrido[3,4-b]pyrazin-6-yl}ethan-1-one], the IC50 against GPR6 (setting [3]) and against GPR3 (setting [4]) was 1000 to 30000 nM in each case.
Take `COc1nc(-c2nc3c(nc2N2CCC(Oc4ccc(F)cc4F)CC2)CCN(C(C)=O)C3)cnc1Cl` [Compound 308]: the IC50 on GPR6 (procedure of Example 24) is < 100 nM; against GPR3 (procedure of Example 24), 1000 to 30000 nM.
Consider `Cn1cc(-c2nc3cnc([C@H]4C[C@@H]4C(=O)O)cc3nc2N2CCC(Oc3ccc(F)cc3F)CC2)cn1` (single isomer, unassigned) [Compound 737], for which the IC50 against GPR6 (procedure of Example 24) and against GPR3 (procedure of Example 24) was 1000 to 30000 nM each time.
For the compound `CCn1cc(-c2nc3c(nc2N2CCC(Oc4ccc(F)cc4F)CC2)CCN(C(=O)C2COCCN2)C3)cn1` (stereo not shown) [Compound 491, 3-{2-[4-(2,4-difluorophenoxy)piperidin-1-yl]-3-(1-ethyl-1H-pyrazol-4-yl)-5H,6H,7H,8H-pyrido[3,4-b]pyrazine-6-carbonyl}morpholine], the IC50 at GPR6 (setting [1]) was < 100 nM; against GPR3 (setting [2]), 1000 to 30000 nM.
Consider `COC[C@@](C)(O)c1cc2nc(N3CCC(Oc4ccc(F)cc4F)CC3)c(-c3cnn(C)c3)nc2cn1` (single isomer, unassigned) [Compound 615], for which the values for the IC50 against GPR6 (procedure of Example 24) and against GPR3 (procedure of Example 24) were 100 to 1000 nM and 1000 to 30000 nM, respectively.
On to `CCn1cc(-c2nc3c(nc2N2CCC(Oc4ccc(F)cc4F)CC2)CCN(C(=O)C2CC(F)(F)CN2C)C3)cn1` (stereo not shown) [Compound 483, (4,4-difluoro-1-methylpyrrolidin-2-yl)(2-(4-(2,4-difluorophenoxy)piperidin-1-yl)-3-(1-ethyl-1H-pyrazol-4-yl)-7,8-dihydropyrido[3,4-b]pyrazin-6(5H)-yl)methanone], for which the values for the IC50 on GPR6 (setting [3]) and against GPR3 (setting [4]) were 100 to 1000 nM and 1000 to 30000 nM, respectively.
Consider `Cn1cc(-c2nc3cnc(C4(O)COCC4O)cc3nc2N2CCC(Oc3ccc(F)cc3F)CC2)cn1` (stereo not shown) [Compound 412, 3-{2-[4-(2,4-difluorophenoxy)piperidin-1-yl]-3-(1-methyl-1H-pyrazol-4-yl)pyrido[3,4-b]pyrazin-7-yl}oxolane-3,4-diol], for which the IC50 against GPR6 (setting [3]) and on GPR3 (setting [4]) was 1000 to 30000 nM each time.
On to `CC(=O)N1CCc2nc(N3CCN(Cc4ccnn4C)CC3)c(-c3cnn(C)c3)nc2C1` [Compound 525, 1-[3-(1-methyl-4-pyrazolyl)-2-{4-[(1-methyl-5-pyrazolyl)methyl]-1-piperazinyl}-5,6,7,8-tetrahydro-1,4,6-triaza-6-naphthyl]-1-ethanone], for which the concentration for half-maximal inhibition (IC50) on GPR6 (setting [1]) and at GPR3 (setting [2]) was ≥ 30000 nM in each case.
Regarding `COCc1cccc(-c2nc3c(nc2N2CCC(Oc4ccc(F)cc4F)CC2)CCN(C(C)=O)C3)n1` [Compound 161, 1-{2-[4-(2,4-difluorophenoxy)piperidin-1-yl]-3-[6-(methoxymethyl)pyridin-2-yl]-5H,6H,7H,8H-pyrido[3,4-b]pyrazin-6-yl}ethan-1-one], the IC50 against GPR6 (setting [3]) and on GPR3 (setting [4]) was 1000 to 30000 nM throughout.
As for `Cn1cc(-c2nc3cnc(C[C@@H](O)CO)cc3nc2N2CCC(Oc3ccc(F)cc3F)CC2)cn1` (single isomer, unassigned) [Compound 415], the values for the IC50 at GPR6 (setting [3]) and against GPR3 (setting [4]) were 100 to 1000 nM and 1000 to 30000 nM, respectively.
With `CC(=O)N1CCc2nc(N3CCC(Oc4ccc(F)cc4F)CC3)c(-c3cnn(-c4ccccc4)c3)nc2C1` [Compound 76, 1-{2-[4-(2,4-difluorophenoxy)piperidin-1-yl]-3-(1-phenyl-1H-pyrazol-4-yl)-5H,6H,7H,8H-pyrido[3,4-b]pyrazin-6-yl}ethan-1-one], the IC50 at GPR6 (setting [3]) fell in the range of 100 to 1000 nM; against GPR3 (setting [4]), 1000 to 30000 nM.
`CC(=O)N1CCc2nc(N3CCN(Cc4ccc(F)cc4F)CC3)c(-c3cnn(C)c3)nc2C1` [Compound 352, 1-(2-{4-[(2,4-difluorophenyl)methyl]piperazin-1-yl}-3-(1-methyl-1H-pyrazol-4-yl)-5H,6H,7H,8H-pyrido[3,4-b]pyrazin-6-yl)ethan-1-one]: the values for the IC50 at GPR6 (procedure of Example 24) and at GPR3 (procedure of Example 24) were 100 to 1000 nM and 1000 to 30000 nM, respectively.
Regarding `CC(=O)N1CCc2nc(N3CCC(C(=O)Nc4ccc(F)cc4)C3)c(-c3cnn(C)c3)nc2C1` (stereo not shown) [Compound 391, 1-[6-acetyl-3-(1-methyl-1H-pyrazol-4-yl)-5H,6H,7H,8H-pyrido[3,4-b]pyrazin-2-yl]-N-(4-fluorophenyl)pyrrolidine-3-carboxamide], the IC50 on GPR6 (setting [3]) was ≥ 30000 nM; at GPR3 (setting [4]), 1000 to 30000 nM.
Consider `CC(C)(O)C(O)c1cc2nc(-c3cnn(C(F)F)c3)c(N3CCN(Cc4ccccc4F)CC3)nc2cn1` (single isomer, unassigned) [Compound 668, 1-{2-[1-(difluoromethyl)-4-pyrazolyl]-3-{4-[(o-fluorophenyl)methyl]-1-piperazinyl}-1,4,6-triaza-7-naphthyl}-2-methyl-1,2-propanediol], for which the half-maximal inhibitory concentration (IC50) was < 100 nM at GPR6 (procedure of Example 24) and 1000 to 30000 nM against GPR3 (procedure of Example 24).
With `CC(=O)N1CCC=C(c2nc3c(nc2N2CCC(Oc4ccc(F)cc4F)CC2)CCN(C(C)=O)C3)C1` [Compound 71, 1-[3-(1-acetyl-1,2,5,6-tetrahydropyridin-3-yl)-2-[4-(2,4-difluorophenoxy)piperidin-1-yl]-5H,6H,7H,8H-pyrido[3,4-b]pyrazin-6-yl]ethan-1-one], the IC50 at GPR6 (setting [3]) and on GPR3 (setting [4]) was 1000 to 30000 nM throughout.
Take `Cn1cc(-c2nc3cnc([C@@](C)(O)C(C)(C)O)cc3nc2N2CCC(Oc3ccc(F)cc3F)CC2)cn1` (single isomer, unassigned) [Compound 672]: the IC50 against GPR6 (procedure of Example 24) fell in the range of 100 to 1000 nM; against GPR3 (procedure of Example 24), 1000 to 30000 nM.
On to `CC(O)C(O)c1cc2nc(N3CCC(Oc4ccc(F)cc4F)CC3)c(-c3cnn(C)c3)nc2cn1` (stereo not shown) [Compound 401, 1-{2-[4-(2,4-difluorophenoxy)piperidin-1-yl]-3-(1-methyl-1H-pyrazol-4-yl)pyrido[3,4-b]pyrazin-7-yl}propane-1,2-diol], for which the IC50 against GPR6 (setting [3]) was 100 to 1000 nM; at GPR3 (setting [4]) it was 1000 to 30000 nM.
Regarding `CC(C)(O)[C@H](O)c1cc2nc(-c3cnn(CF)c3)c(N3CCC(Cc4ccc(F)cc4F)CC3)nc2cn1` (single isomer, unassigned) [Compound 787], the IC50 against GPR6 (procedure of Example 24) and against GPR3 (procedure of Example 24) was < 100 nM throughout.
For `O=C1CC(N2CCc3nc(N4CCC(Oc5ccc(F)cc5F)CC4)c(-c4cn[nH]c4)nc3C2)CN1` (stereo not shown) [Compound 229, 4-{2-[4-(2,4-difluorophenoxy)piperidin-1-yl]-3-(1H-pyrazol-4-yl)-5H,6H,7H,8H-pyrido[3,4-b]pyrazin-6-yl}pyrrolidin-2-one], the IC50 against GPR6 (setting [3]) and at GPR3 (setting [4]) was 1000 to 30000 nM in each case.
